Laboratory results from US9441262B2, “MASP-2, a complement fixing enzyme, and uses for it” (Helion Biotech ApS, priority 1997, dated 2016).

Target: T1, MASP-2 (Homo sapiens, UniProt O00187)
T1 construct: applying test samples, e.g., diluted plasma or serum samples; from tissue; host or cells: plasma or serum
Experiment: TRIFMA for MASP-2 activity of the MBL/MASP complex (C4 activation on mannan-coated wells)
Format: biochemical
Procedure: MASP-2 may be estimated by its capacity to activate the complement system. When C4 is cleaved by MASP-2 an active thiol ester is exposed and C4 becomes covalently attached to nearby nucleophilic groups. A substantial part of the C4b will thus become attached to the coated plastic well and may be detected by anti-C4 antibody. A quantitative TRIFMA for MASP-2 activity was constructed by 1) coating microtitre wells with 1 μg mannan in 100 μl buffer; 2) blocking with Tween-20; 3) applying test samples, e.g., diluted plasma or serum samples; 4) applying purified complement factor C4 at 5 μg/ml; 5) incubate for one hour at 37° C.; 6) applying Eu-labelled anti-C4 antibody; 7) applying enhancement solution; and 8) reading the Eu by time resolved fluorometry. (Estimation by ELISA may be carried out similarly, e.g. by applying biotin-labelled anti-C4 in step 6; 7) apply alkaline phosphatase-labelled avidin; 8) apply substrate; and 9) read the colour intensity). Between each step the plate was incubated at room temperature and washed, except between step 7 and 8. A calibration curve can be constructed using dilutions of one selected normal plasma, arbitrarily said to contain 1 unit of MBL/MASP-2 activity per ml. The assay is carried out at conditions which preclude activation of C4 by the classical or alternative complement activation pathways.

T1 sequence (O00187 445-686 limits assumed): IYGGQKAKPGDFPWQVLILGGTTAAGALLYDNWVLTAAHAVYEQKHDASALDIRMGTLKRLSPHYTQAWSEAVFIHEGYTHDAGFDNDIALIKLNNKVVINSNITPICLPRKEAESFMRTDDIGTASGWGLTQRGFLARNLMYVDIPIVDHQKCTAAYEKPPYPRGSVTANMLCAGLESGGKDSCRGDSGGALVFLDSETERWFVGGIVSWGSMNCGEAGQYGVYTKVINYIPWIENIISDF
T1 sequence (O00187 16-444 partner limits assumed): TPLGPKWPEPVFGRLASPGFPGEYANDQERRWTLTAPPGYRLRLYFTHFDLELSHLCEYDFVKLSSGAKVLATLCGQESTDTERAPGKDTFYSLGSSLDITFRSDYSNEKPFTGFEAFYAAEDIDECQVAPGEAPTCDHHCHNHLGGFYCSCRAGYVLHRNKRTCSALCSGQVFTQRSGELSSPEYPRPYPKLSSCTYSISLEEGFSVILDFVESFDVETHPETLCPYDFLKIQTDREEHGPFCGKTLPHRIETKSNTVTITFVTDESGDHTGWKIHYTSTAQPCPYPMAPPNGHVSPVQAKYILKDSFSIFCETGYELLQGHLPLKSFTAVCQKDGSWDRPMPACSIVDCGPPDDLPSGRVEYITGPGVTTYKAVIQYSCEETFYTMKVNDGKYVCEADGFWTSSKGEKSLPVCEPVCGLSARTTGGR
T1 sequence (P11226 21-248 partner): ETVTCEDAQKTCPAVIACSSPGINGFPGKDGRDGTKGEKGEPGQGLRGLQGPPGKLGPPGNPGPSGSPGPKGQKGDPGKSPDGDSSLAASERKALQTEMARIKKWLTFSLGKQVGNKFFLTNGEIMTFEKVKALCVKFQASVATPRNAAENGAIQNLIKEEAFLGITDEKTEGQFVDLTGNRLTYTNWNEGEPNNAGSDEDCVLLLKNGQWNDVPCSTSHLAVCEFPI

Row | SMILES | effectiveness as enzyme inhibitor in the TRIFMA for MASP-2 activity | activation of C4 (purified C4 at 5 μg/ml, one hour at 37° C.)
1 | O=S(=O)(F)Cc1ccccc1 [PMSF] | proved effective | 
2 | N=C(N)c1ccccc1 [benzamidine] | proved effective | completely inhibited
3 | Cl.NCCc1ccc(S(=O)(=O)F)cc1 [Pefabloc] | inhibitors of MASP-2 activity | 
